Here are results for five compounds from ChEMBL document CHEMBL3585313, “Fragment-Based Discovery of a Small Molecule Inhibitor of Bruton's Tyrosine Kinase” (J Med Chem, 2015).

The target in series [1] is Tyrosine-protein kinase Lck (Homo sapiens, UniProt P06239). Briefly: Inhibition of Lck (unknown origin).
Series [2] concerns the target T1, Tyrosine-protein kinase BTK (Homo sapiens, UniProt Q06187).
Description: Inhibition of BTK in human Raji cells after 30 mins by HTRF assay
Series [3] is described as follows: Oral bioavailability in Sprague-Dawley rat at 4 mg/kg. It counts as ADME, organism-based. The settings on record: in vivo.
The nature of series [4]: Hepatic extraction ratio in rat liver microsomes at 1 uM up to 30 mins by LC-MS/MS analysis. The series is classed as ADME. The note with it: read-out: ERH. Background: Microsomes from liver hold many membrane-bound enzymes, among them those of drug oxidation.
Series [5] is described as follows: Volume of distribution at steady state in Sprague-Dawley rat at 1 mg/kg, iv and 4 mg/kg, po. The note with it: in vivo, read-out: Vdss. It counts as ADME, organism-based.
A further series concerns LLC-PK1. Briefly: Efflux ratio of apparent permeability across apical to basolateral side over basolateral to apical side in pig LLC-PK1 cells expressing MDR1. It counts as ADME, cell-based, Sus scrofa.
In another series the test system is MDR1. Briefly: Apparent permeability across apical to basolateral side in pig LLC-PK1 cells expressing MDR1. The series is classed as ADME, cell-based, Sus scrofa.
Series [6] in a line: Hepatic extraction ratio in Sprague-Dawley rat at 1 mg/kg, iv. The series is classed as ADME, organism-based. The note with it: in vivo, read-out: ERH.
A short description of series [7]: Half life in Sprague-Dawley rat at 1 mg/kg, iv and 4 mg/kg, po. It counts as ADME, organism-based. The note with it: in vivo.
The nature of series [8]: Clearance in Sprague-Dawley rat at 1 mg/kg, iv. The series is classed as ADME, organism-based. The settings on record: in vivo.
A short description of series [9]: Hepatic extraction ratio in human liver microsomes at 1 uM up to 30 mins by LC-MS/MS analysis. The series is classed as ADME. The settings on record: read-out: ERH.
Series [10] addresses T1, Tyrosine-protein kinase BTK. Briefly: Inhibition of BTK autophosphorylation in human Raji cells after 30 mins by Phos-Y223 Btk HTRF assay. The series is classed as cell-based. For orientation: In TR-FRET formats the signal depends on donor and acceptor labels being close together.
Series [11] concerns the target T2, Tyrosine-protein kinase Fgr (Homo sapiens, UniProt P09769). Briefly: Inhibition of human recombinant Fgr at 1 uM.
The next series addresses LIM domain kinase 1 (Homo sapiens, UniProt P53667). Briefly: Inhibition of human recombinant LIMK1 by LanthaScreen Binding assay.
The target in series [12] is Tyrosine-protein kinase Tec (Homo sapiens, UniProt P42680). Briefly: Inhibition of human recombinant Tec.
The target of series [13] is T3, Proto-oncogene tyrosine-protein kinase Src (Homo sapiens, UniProt P12931). Briefly: Inhibition of human recombinant Src at 1 uM.
For series [14], the target named is T4, Tyrosine-protein kinase Lyn (Homo sapiens, UniProt P07948). Briefly: Inhibition of human recombinant LynB.
Target sequence in this assay (P07948 whole entry): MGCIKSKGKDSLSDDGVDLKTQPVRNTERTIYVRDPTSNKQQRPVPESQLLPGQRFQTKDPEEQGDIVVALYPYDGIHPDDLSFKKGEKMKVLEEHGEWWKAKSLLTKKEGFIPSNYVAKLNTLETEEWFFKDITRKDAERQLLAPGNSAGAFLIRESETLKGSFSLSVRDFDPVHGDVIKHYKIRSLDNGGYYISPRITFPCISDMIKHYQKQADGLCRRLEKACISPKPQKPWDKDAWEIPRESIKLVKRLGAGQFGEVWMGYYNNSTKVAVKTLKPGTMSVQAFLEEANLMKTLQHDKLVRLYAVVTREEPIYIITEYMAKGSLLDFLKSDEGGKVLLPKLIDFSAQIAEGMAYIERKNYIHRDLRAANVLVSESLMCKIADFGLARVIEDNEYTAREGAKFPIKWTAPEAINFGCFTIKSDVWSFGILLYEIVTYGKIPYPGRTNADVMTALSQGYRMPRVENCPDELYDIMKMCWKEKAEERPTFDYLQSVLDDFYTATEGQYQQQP
Series [15] has as its target T4, Tyrosine-protein kinase Lyn. The note with it: 1 uM.
Target sequence in this assay (P07948 2-512 limits assumed): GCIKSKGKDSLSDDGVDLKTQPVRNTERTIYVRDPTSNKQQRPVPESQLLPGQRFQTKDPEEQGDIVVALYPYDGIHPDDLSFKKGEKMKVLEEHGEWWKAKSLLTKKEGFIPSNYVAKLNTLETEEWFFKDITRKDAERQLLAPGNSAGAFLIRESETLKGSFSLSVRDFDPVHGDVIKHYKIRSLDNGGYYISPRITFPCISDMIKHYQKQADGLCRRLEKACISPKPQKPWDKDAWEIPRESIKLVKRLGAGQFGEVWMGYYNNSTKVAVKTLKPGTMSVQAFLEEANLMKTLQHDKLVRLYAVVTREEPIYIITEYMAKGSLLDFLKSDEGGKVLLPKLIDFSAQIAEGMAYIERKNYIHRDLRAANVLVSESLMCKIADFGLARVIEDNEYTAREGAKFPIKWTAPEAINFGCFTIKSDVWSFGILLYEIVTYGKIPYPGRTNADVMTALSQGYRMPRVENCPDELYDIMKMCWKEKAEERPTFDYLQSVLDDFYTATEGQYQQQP
Description: Inhibition of human recombinant LynB at 1 uM
Series [16] is described as follows: Clearance in beagle dog at 1 mg/kg, iv and 10 mg/kg, po. The settings on record: in vivo. It counts as ADME, organism-based, Canis lupus familiaris.
Series [17] has as its target Tyrosine-protein kinase Yes (Homo sapiens) (UniProt P07947). Briefly: Inhibition of human recombinant Yes at 1 uM.
A short description of series [18]: Clearance in C57/bl6 mouse at 1 mg/kg, iv and 10 mg/kg, po. The settings on record: in vivo. It counts as ADME, organism-based.
Another series deals with Activated CDC42 kinase 1 (Homo sapiens, UniProt Q07912). Briefly: Inhibition of human recombinant TNK2 by LanthaScreen Binding assay.
Series [19] concerns the target T5, Tyrosine-protein kinase Blk (Homo sapiens, UniProt P51451). Briefly: Inhibition of human recombinant Blk at 1 uM.
The target in series [20] is T6, Tyrosine-protein kinase HCK (Homo sapiens, UniProt P08631). Briefly: Inhibition of human recombinant Hck at 1 uM.
Series [21] has as its system Rattus norvegicus. Briefly: Antiarthritic activity in po dosed bovine type-2 collagen-induced po dosed female Lewis rat arthritic model assessed as increase in paw volume AUC (0 to 24 hrs) administered as qd starting on day 12 continued through day 21. The series is classed as functional, organism-based.
A short description of series [22]: Half life in C57/bl6 mouse at 1 mg/kg, iv and 10 mg/kg, po. The settings on record: in vivo. It counts as ADME, organism-based.
Series [23] deals with T7, Tyrosine-protein kinase FRK (Homo sapiens, UniProt P42685). Briefly: Inhibition of human recombinant Frk.
Series [24] deals with T2, Tyrosine-protein kinase Fgr. Briefly: Inhibition of human recombinant Fgr.
The target in series [25] is Tyrosine-protein kinase Fyn (Homo sapiens) (UniProt P06241). Briefly: Inhibition of human recombinant Fyn at 1 uM.
For series [26], the target named is Cytoplasmic tyrosine-protein kinase BMX (Homo sapiens, UniProt P51813). Briefly: Inhibition of human recombinant Bmx.
The target of series [27] is T6, Tyrosine-protein kinase HCK. Briefly: Inhibition of human recombinant Hck.
The target of series [28] is Cytoplasmic tyrosine-protein kinase BMX (Homo sapiens) (UniProt P51813). Briefly: Inhibition of human recombinant Bmx at 1 uM.
Series [29] addresses T3, Proto-oncogene tyrosine-protein kinase Src. Briefly: Inhibition of human recombinant Src.
A short description of series [30]: Volume of distribution at steady state in C57/bl6 mouse at 1 mg/kg, iv and 10 mg/kg, po. The settings on record: in vivo, read-out: Vdss. It counts as ADME, organism-based.
Series [31] has as its target T4, Tyrosine-protein kinase Lyn. The note with it: 1 uM. This is another data set of the same source.
Target sequence in this assay (P07948 2-512 limits assumed): as above
Description: Inhibition of human recombinant LynA at 1 uM
In series [32] the target is Tyrosine-protein kinase Tec (Homo sapiens) (UniProt P42680). Briefly: Inhibition of human recombinant Tec at 1 uM.
A short description of series [33]: Half life in beagle dog at 1 mg/kg, iv and 10 mg/kg, po. The note with it: in vivo. It counts as ADME, organism-based, Canis lupus familiaris.
Series [34] in a line: Volume of distribution at steady state in beagle dog at 1 mg/kg, iv and 10 mg/kg, po. The series is classed as ADME, organism-based, Canis lupus familiaris. The settings on record: in vivo, read-out: Vdss.
Series [35] has as its target T4, Tyrosine-protein kinase Lyn. Briefly: Inhibition of human recombinant LynA.
Target sequence in this assay (P07948 whole entry): as the sequence (P07948 whole entry) above
Series [36] has as its system Rattus norvegicus. Briefly: Antiarthritic activity in po dosed bovine type-2 collagen-induced po dosed female Lewis rat arthritic model assessed as inhibition of paw volume administered as qd starting on day 12 continued through day 21. The series is classed as functional, organism-based.
Series [37] in a line: Oral bioavailability in C57/bl6 mouse at 10 mg/kg. The series is classed as ADME, organism-based. The note with it: in vivo.
Series [38] addresses T7, Tyrosine-protein kinase FRK. Briefly: Inhibition of human recombinant Frk at 1 uM.
The next series deals with Activin receptor type-1 (Homo sapiens, UniProt Q04771). Briefly: Inhibition of human recombinant ALK2 by LanthaScreen Binding assay.
The nature of series [39]: Oral bioavailability in beagle dog at 10 mg/kg. The series is classed as ADME, organism-based, Canis lupus familiaris. The settings on record: in vivo.
Series [40] deals with T5, Tyrosine-protein kinase Blk. Briefly: Inhibition of human recombinant Blk.

Tyrosine-protein kinase Lck, sequence (P06239 whole entry): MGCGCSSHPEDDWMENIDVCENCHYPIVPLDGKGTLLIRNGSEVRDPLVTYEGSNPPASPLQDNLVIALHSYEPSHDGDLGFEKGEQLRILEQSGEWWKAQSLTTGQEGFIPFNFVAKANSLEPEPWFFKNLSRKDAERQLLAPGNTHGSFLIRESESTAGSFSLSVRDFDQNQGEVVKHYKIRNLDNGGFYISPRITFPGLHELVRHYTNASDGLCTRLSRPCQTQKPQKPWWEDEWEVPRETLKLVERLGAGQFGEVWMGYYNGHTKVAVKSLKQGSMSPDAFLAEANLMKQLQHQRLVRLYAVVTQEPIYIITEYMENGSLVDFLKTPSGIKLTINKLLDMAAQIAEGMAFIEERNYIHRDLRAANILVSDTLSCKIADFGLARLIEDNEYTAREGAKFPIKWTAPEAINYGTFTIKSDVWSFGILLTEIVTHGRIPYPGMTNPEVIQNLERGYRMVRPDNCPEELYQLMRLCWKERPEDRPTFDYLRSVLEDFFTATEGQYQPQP
T1 sequence (Q06187 whole entry): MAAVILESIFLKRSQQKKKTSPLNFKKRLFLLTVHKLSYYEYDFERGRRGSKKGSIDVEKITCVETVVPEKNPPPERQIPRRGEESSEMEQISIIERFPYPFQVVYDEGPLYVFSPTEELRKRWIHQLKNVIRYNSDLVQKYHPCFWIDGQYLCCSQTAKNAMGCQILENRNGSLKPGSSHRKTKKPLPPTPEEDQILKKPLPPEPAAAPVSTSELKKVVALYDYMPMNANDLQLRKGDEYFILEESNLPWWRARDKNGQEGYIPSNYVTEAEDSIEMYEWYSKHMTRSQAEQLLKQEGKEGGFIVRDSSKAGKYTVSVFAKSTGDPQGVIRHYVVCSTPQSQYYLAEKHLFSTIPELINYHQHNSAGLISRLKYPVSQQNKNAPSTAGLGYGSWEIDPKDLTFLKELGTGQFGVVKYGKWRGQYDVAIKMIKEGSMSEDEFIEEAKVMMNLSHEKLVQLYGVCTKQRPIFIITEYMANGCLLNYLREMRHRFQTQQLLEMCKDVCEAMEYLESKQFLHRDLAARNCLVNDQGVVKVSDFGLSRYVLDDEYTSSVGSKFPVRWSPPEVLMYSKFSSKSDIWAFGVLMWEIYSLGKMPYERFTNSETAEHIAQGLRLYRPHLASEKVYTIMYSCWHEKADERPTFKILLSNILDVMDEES
T3 sequence (P12931 2-536 limits assumed): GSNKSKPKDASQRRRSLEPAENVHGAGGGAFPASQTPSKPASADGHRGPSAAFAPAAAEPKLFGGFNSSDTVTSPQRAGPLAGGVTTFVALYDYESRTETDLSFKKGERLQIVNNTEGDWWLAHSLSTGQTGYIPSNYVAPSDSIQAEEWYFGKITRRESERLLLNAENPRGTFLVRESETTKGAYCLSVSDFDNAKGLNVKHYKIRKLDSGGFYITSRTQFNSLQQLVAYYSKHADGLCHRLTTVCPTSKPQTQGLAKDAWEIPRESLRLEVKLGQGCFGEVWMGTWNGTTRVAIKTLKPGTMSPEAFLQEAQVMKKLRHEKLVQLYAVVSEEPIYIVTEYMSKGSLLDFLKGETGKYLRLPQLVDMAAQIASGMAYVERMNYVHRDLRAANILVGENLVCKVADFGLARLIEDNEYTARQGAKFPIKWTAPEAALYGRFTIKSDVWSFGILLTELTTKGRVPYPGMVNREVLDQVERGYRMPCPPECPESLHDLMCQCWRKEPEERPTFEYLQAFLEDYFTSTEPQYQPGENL
T7 sequence (P42685 whole entry): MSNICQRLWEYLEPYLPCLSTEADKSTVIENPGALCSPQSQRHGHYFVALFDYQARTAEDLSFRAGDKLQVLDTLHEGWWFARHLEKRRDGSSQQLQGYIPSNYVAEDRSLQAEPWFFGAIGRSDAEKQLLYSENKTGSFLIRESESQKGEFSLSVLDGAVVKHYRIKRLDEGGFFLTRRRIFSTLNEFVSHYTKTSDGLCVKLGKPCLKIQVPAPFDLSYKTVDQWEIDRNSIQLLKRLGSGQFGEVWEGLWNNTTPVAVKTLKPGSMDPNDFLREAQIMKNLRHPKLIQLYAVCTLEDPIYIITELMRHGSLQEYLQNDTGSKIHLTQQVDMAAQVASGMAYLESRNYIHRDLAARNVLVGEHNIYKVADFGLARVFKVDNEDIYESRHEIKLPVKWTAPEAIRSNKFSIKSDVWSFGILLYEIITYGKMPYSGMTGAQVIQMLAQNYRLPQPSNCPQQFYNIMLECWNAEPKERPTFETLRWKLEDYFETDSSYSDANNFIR
Activated CDC42 kinase 1, sequence (Q07912 whole entry): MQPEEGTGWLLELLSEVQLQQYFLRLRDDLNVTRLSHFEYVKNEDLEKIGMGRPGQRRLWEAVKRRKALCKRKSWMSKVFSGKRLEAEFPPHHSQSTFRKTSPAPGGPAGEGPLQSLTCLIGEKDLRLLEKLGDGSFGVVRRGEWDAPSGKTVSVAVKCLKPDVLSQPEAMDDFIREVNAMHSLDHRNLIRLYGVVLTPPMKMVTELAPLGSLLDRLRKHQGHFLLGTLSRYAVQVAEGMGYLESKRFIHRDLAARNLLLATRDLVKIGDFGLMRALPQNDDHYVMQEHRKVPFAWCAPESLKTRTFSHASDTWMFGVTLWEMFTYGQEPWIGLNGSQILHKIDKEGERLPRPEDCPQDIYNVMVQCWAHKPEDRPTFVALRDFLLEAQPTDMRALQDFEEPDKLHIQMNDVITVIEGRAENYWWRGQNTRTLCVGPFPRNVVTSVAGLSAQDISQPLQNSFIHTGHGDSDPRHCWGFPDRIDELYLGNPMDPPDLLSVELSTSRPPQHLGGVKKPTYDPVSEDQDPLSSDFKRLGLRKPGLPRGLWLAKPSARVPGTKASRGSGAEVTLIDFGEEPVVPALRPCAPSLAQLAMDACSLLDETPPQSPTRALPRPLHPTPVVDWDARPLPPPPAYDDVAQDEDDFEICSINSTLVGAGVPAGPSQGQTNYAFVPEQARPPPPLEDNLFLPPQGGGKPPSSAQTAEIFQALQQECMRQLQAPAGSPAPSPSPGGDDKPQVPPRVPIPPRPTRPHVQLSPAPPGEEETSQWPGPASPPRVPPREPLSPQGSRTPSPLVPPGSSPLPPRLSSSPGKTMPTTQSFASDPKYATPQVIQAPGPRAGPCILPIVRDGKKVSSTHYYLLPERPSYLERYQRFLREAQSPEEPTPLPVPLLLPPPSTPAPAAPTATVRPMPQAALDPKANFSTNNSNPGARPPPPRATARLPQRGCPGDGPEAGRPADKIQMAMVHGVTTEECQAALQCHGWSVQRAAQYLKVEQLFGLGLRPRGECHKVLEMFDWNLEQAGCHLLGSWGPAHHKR
Cytoplasmic tyrosine-protein kinase BMX (Homo sapiens), sequence (P51813 whole entry): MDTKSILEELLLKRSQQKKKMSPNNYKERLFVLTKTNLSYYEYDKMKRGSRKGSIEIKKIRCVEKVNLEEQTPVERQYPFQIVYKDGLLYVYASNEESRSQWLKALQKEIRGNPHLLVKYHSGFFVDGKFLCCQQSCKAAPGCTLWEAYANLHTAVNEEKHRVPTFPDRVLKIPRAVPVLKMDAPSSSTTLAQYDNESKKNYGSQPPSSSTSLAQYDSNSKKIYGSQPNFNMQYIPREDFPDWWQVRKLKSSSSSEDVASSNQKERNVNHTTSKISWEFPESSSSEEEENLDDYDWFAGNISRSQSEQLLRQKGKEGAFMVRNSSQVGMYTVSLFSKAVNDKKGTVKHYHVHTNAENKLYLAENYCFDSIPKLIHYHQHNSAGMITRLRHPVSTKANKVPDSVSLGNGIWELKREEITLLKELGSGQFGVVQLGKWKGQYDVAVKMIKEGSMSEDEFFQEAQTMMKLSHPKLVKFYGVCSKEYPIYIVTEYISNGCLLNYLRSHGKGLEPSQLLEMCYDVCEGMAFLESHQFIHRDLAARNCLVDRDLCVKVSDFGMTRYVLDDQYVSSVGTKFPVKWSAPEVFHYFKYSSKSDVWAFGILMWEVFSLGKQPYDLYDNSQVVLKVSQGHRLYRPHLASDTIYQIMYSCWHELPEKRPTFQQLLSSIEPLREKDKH

Usually IC50 stands for the point on the concentration scale where inhibition reaches its midpoint. Turning to `NC(=O)c1nnc2ccccc2c1N`, the IC50 in [1] was 38000 nM; in [2] it was 3500 nM.
Usually bioavailability stands for dose-corrected exposure relative to a reference, in per cent. What is called Papp A→B is the apparent permeability from the apical to the basolateral side of a cell layer. For orientation: half-life means how long it takes for the measured level to halve. A high value points to slow decline. A word on the EC50: it is the midpoint of the concentration-response curve. Low values mean an effect from little substance, high ones a need for much substance. Turning to `Cn1cc(-c2cccc3c(N)c(C(N)=O)nnc23)cn1`, the bioavailability in [3] turned out to be 35%. Further, the figures for the hepatic extraction ratio at 0.5 h, 1 µM in series [4] and in series [9] were 0.5 and 0.77, respectively. In series [5], the Vd came to 0.7 L/kg. In the series with LLC-PK1, the Ratio was found to be 0.7. The Papp A→B in the series with MDR1 is 28.8 ×10⁻⁶ cm/s. Further, the hepatic extraction ratio in [6] stood at 0.3. The compound also showed a half-life in [7] of 1.3 h. The compound further registered a clearance in [8] of 22 mL/min/kg. For the same compound, the IC50 in [1] was found to be 13000 nM; in [2] it was 240000 nM. Further, the EC50 in series [10] is more than 50000 nM.
By inhibition is commonly meant the share of the control response that was lost under treatment. Consider `Cc1cc2cn[nH]c2cc1-c1cccc2c(N)c(C(N)=O)nnc12`, for which the inhibition was 94% in series [11]; 87% in series [13]; 85% in [15]; 73% in [17]; 89% in series [19]; 82% in series [20]. Moreover, the inhibition is 53% in series [25]; 91% in series [28]; 82% in [31]; 92% in series [32]; 88% in [38]. In addition, the IC50 was 12 nM on LIM domain kinase 1; 57 nM in series [12]; 54 nM in series [14]; 11 nM on Activated CDC42 kinase 1; 41 nM in series [23]; 41 nM in [24]. For the same compound, the IC50 in series [26] came out at 36 nM; in series [27] it was 99 nM; in series [29], 67 nM; in [35], 82 nM; at Activin receptor type-1 it was 7 nM; in [40], 36 nM. In addition, the bioavailability amounted to 70% in series [3], 93% in [37] and 89% in series [39]. In addition, the Vd is 1.5 L/kg in [5], 0.8 L/kg in series [30] and 1.1 L/kg in [34]. Besides, the clearance worked out at 8.7 mL/min/kg in [16], 18 mL/min/kg in [18] and 12 mL/min/kg in series [8]. In addition, the half-life in [7] is 1.6 h; in [22], 1.6 h; in series [33], 4.1 h. Also, the Activity result with Rattus norvegicus [21] and in the series on Rattus norvegicus [36] was “Dose-dependent effect” each time.
`NC(=O)c1nnc2c(-c3ccc4cc[nH]c4c3)cccc2c1N`: half-maximal inhibition in series [1] (IC50) required 6400 nM.
The same measure, in the same setting: next, `NC(=O)c1nnc2c(-c3ccc4cn[nH]c4c3)cccc2c1N`: 1300 nM.
